For data set [1], the system named is eustachian tube function in "normal" volunteers. The following applies: cited from earlier work; for effect on eustachian tube function (tympanometry): "normal" volunteers, nasal application.
The subject of data set [2] is Eustachian tube function in rat model. The following applies: topical application; cited from earlier work.
The conditions of data set [3]: high concentrations; cited from earlier work.
Data set [4] deals with humans with Eustachian tube dysfunction. The following applies: cited from earlier work.
For data set [5], the system named is human patients suffering from secondary Meniere's disease (activated cervical sympathetic nervous system, mild Eustachian tube dysfunction). The data set is described as follows: Clinical treatment of secondary Meniere's disease patients with oral betahistine, electrocochleography (ECochG) SP/AP amplitude ratio and symptoms. The format is in vivo. The procedure: Patients, aged 19-70 years, have undergone baseline testing to determine SP/AP amplitude ratio using ECochG in Meniere's disease patients before the start of study treatment. The effect on SP/AP amplitude ratio was evaluated after a predetermined period of treatment with betahistine or a pharmaceutically acceptable salt.
Patients were seated in a swivel chair and the chair rotated while the patient's head was stabilized. Effect of rotational movement was observed and pupil enlargement a determinant of secondary Meniere's disease.
Dose levels included 16 mg of betahistine three time daily for predetermined period. 8 mg dose twice daily thereafter for a second predetermined period.
Patient studies comprise a range of dosing regimens including tablets, powders, sprays. In present studies unless otherwise stated each dose was administered in a tablet form in the morning taken after food.
Route of Administration can include oral and topical delivery. In the present studies unless otherwise stated route of administration was oral delivery.
Audiological evaluations were performed at specified intervals to evaluate the efficacy of Tests performed by physician or qualified audiologist. ECochG was performed at specified intervals by a physician specialist. Patient reported outcomes by self-administered questionnaire included the VSS (Yardley et al. 2004) and the TFI (Meikle et al. 2011). These were scored by study personnel.
Patient was started on oral dosage form of betahistine 16 mg three times daily (tds) for two weeks and reduced to 8 mg once daily thereafter for two months.

[6] abbreviates: patient, review at two months of oral betahistine.
The mark [7] stands for this setting: patient, two months into oral betahistine treatment.

Where “and” joins values, the source holds several entries; their conditions need not be identical. Identical values can stand only once. Like-named read-outs stand apart in the source and are kept apart here.

As for `CNCCc1ccccn1` [betahistine], the entries for the “effect on eustachian tube function (tympanometry)” value in data set [1] (at best) and in data set [1] (higher dosages) were “no effect” and “Eustachian tube function became worse”, respectively. Besides, in data set [1] (volunteers found to have mild Eustachian tube dysfunction), the “mild Eustachian tube dysfunction” value was “not improved”. Also, the Eustachian tube function result in data set [2] is listed as “improved”; in data set [5] (patients with activated cervical sympathetic nervous system and mild Eustachian tube dysfunction), “facilitation of Eustachian tube function”. In data set [3], the toxicity result is reported as “nontoxic”. Also, the result versus placebo in data set [4] is “no greater result than a placebo”. In addition, the “elevated SP/AP ratio indicating endolymphatic hydrops” value in data set [5] (all cases of secondary MD treated) was “normalized”. Besides, the “Left Ear SP/AP Ratio, Average Ratio” value in data set [5] (patient, after treatment (before treatment 28.6%)) is reported as “Average Ratio of 16%”. For the same compound, the “Right Ear SP/AP Ratio” value in data set [5] (patient, after treatment, single traces) was 9% and 18%. Besides, the repeat electrocochleograms entry in data set [5] (setting [6]) and in data set [5] (setting [7]) was “returned to normal levels” each time. The symptoms at review entry in data set [5] (setting [6]) and in data set [5] (setting [7]) was “improved significantly” throughout. Also, in data set [5] (patients suffering from secondary MD), the treatment outcomes is recorded as “invariably improved treatment outcomes”.

(Values after patent publication US11116719B2, “Methods of treating Meniere's disease” (priority 2017, dated 2021).)
